Molecules are shown by their SMILES.

This note sets out measurements from US20260007680A1, “Compounds and Their Use as PDE4 Activators” (Mironid Limited, priority 2022, published 2026).

One experiment deals with T1, PDE4B2 (Homo sapiens, UniProt Q07343).
T1 construct: the full length human PDE4B2 short isoform; made in house; cytosol fraction of cell lysate, prepared as described for PDE4D5
Kind of experiment: PDE assay, PDE4B2 short form (Experiment 1). Format: biochemical. The conditions noted are these: 100 μM test compound; mean % increase in counts over basal activity. The method, then: (§1) One suitable method of detecting whether or not a compound is capable of serving as an activator of a PDE4 long form is using a two-step radio-assay procedure described in Experiment 1. In summary, the method involves incubating a PDE4 long form with a test small molecule activator, together with [^3H]-labelled cAMP to assess alterations in the breakdown of cAMP to the 5′-adenosine monophosphate (5′-AMP) product. A sample of the reaction mixture from such an incubation is subsequently treated with snake venom 5′-nucleotidase to allow conversion of the nucleotide [^3H]-labelled 5′-AMP to the uncharged nucleoside [^3H]-labelled adenosine, which can be separated and quantified to assess PDE4 activity and the effect of the test compound (Thompson, W. J. and Appleman, M. M. Biochemistry 10: 311-316, 1971, with some modifications as described in: Marchmont, R. J. and Houslay, M. D. Biochem J. 187: 381-92, 1980).
(§2) Experiment 1: Measurement of Modulation of Enzyme Activity by PDE4 Long Form Activators of the Present Invention Using Full-Length Human PDE4 Isoforms; Long Forms PDE4D5, PDE4C3, PDE4B1 and Short Form PDE4B2 • (Marchmont, R. J. and Houslay, M. D. Biochem. J. 187: 381-92, 1980)
(§3) Where stable cell lines were generated the clonal isolates were expanded to obtain cell lines that stably expressed the full-length human PDE4 long isoforms and the full length human PDE4B2 short isoform. These were called the HEK-PDE4D5, HEK-PDE4B1 and HEK-PDE4B2 cell lines, respectively.
(§4) PDE assays were performed in thin walled V-bottomed 96-well plates. The assays were performed at a final concentration of 10 mM Tris/5 mM MgCl2 plus PDE4D5 cell lysate cytosol fraction, containing over-expressed PDE4D5, with and without test compound. The lysate/compound mix were incubated together for 15 min at room temperature on an orbital shaker prior to addition of [^3H] cAMP (final concentration 1 μM [^3H] cAMP; Perkin Elmer) to a final volume of 50 μL per reaction. The reactions were then incubated for 10 minutes at 30° C., terminated by heating for 2 min at 95° C. and allowed to cool. Snake venom (12.5 μL of 1 mg/mL; Crotalus atrox, Sigma) was then added and the plates were agitated and incubated for a further 15 minutes at 30° C. Dowex ion exchange resin (Sigma, chloride form, 200-400 mesh; 200 μL; prepared as a 1:1 Dowex:water stock, thoroughly re-suspended and diluted 2:1 with ethanol) was then added to each well and the plates incubated for 15 min at room temperature on an orbital shaker ensuring sufficient agitation for resin suspension (550 RPM). The reaction mixture was then transferred to a 96 well filter plate (Millipore; 0.45 μm pore size) and filtered into a receiving 96-well plate to remove the dowex suspension. 30 μL of the filtered solution was then transferred to the wells of an Opti-plate (Perkin Elmer) 96 well assay plate and 120 μL of Microscint 40 scintillation fluid was added. The plate was then placed on an orbital shaker for 10 min at high speed (900 rpm) to mix the sample with scintillation fluid prior to quantitation using a plate based scintillation counter (Top-Count).
The % increase in counts in the presence of test compound at a particular concentration indicates the % increase in enzyme activity at that concentration.

The next experiment deals with T2, PDE4D5 (Homo sapiens, UniProt Q08499).
T2 construct: Using Full-Length Human PDE4 Isoforms; Long Forms PDE4D5, PDE4C3, PDE4B1 and Short Form PDE4B2; made in house; cytosol fraction of cell lysate
Kind of experiment: PDE assay, activation of PDE4D5 long form (Experiment 1). In kind it is biochemical. Conditions: 100 μM test compound; mean % increase in counts over basal activity. On the procedure: as §1, §2
For transient transfection of exogenous PDE4 long isoforms, HEK 293 cells were transfected with pcDNA3.1 or pDEST^TM PDE4 expression vectors using Lipofectamine LTX/Plus reagent (Invitrogen) as outlined by the manufacturer.
as §3
HEK-PDE4D5 cells were seeded out in 100 mm plates and incubated at 37° C. in an atmosphere of 5% CO2, 95% air. Cell lysates were prepared using KHEM buffer [50 mM KCl, 10 mM EGTA, 50 mM HEPES (pH 7.2), 1.92 mM MgCl2].
To prepare the cell lysates, the 100 mm plates containing the cells were placed on ice and washed with ice-cold PBS (phosphate buffered saline, pH 7.4). KHEM buffer (500 μL) was added to the cells. Cells were then scraped off the plate and triturated using a needle (BD Microlance™ 0.8, 40 mm). The lysed cells were then centrifuged at 2000 rpm for 10 minutes to remove cell debris and the supernatant (cell lysate containing recombinant PDE4D5) was transferred to a fresh tube and kept on ice.
The cell lysate containing recombinant PDE4D5 was transferred into a centrifuge tube and placed into an ultracentrifuge (BECKMAN COULTER) and spun at high speed (100,000 g) for 30 minutes at 4° C. The cytosol fraction was then collected and its protein amount determined using a BCA protein assay.
as §4, with “30 μL of the filtered solution was then transferred to the wells of an Opti-plate (Perkin Elmer) 96 well assay plate and 120 μL of Microscint 40 scintillation fluid was added. The plate was then placed on an orbital shaker for 10 min at high speed (900 rpm) to mix the sample with scintillation fluid prior to quantitation using a plate based scintillation counter (Top-Count).” left out

T1 sequence (Q07343 1-564 isoform Q07343-2): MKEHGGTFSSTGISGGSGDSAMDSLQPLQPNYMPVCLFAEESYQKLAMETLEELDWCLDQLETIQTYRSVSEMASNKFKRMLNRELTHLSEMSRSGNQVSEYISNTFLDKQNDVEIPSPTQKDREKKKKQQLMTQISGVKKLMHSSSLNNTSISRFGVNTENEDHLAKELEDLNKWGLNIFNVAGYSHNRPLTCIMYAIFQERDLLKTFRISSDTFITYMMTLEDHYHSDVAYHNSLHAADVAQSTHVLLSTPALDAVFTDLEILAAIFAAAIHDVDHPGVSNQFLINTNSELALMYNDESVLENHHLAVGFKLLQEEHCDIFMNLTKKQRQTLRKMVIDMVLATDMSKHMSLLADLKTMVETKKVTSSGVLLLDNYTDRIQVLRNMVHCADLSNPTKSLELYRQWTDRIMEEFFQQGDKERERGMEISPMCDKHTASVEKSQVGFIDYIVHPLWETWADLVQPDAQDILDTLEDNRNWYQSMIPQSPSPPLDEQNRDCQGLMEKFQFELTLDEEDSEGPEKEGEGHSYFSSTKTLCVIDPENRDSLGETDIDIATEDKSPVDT
T2 sequence (Q08499 1-745 isoform Q08499-6): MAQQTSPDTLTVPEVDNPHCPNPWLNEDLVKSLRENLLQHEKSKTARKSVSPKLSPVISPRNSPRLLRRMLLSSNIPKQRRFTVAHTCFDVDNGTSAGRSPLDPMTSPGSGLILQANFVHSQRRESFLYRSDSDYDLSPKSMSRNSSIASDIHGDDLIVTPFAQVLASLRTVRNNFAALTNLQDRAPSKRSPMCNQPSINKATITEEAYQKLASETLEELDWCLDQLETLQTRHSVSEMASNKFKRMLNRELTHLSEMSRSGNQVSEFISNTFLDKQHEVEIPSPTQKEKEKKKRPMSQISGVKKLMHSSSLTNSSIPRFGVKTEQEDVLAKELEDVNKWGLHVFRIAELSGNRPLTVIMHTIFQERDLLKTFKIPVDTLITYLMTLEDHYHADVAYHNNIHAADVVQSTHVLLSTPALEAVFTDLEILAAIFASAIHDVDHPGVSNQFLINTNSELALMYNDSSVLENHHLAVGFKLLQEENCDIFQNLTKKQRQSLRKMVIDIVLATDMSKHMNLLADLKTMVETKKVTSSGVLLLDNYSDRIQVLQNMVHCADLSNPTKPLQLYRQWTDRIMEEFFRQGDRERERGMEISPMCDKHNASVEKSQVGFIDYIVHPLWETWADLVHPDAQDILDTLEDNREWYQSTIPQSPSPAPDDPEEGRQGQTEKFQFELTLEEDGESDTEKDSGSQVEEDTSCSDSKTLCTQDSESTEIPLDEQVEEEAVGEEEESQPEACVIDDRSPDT

On to `O=C(N[C@H]1CCOc2ccccc21)c1ccc2[nH]c(-c3cccnc3)nc2c1` [Example 8, (S)—N-(chroman-4-yl)-2-(pyridin-3-yl)-1H-benzo[d]imidazole-5-carboxamide], for which the activation at 100 µM on PDE4B2 was -35%; on PDE4D5 it was 52%.

`O=C(N[C@H]1CCc2ccccc21)c1ccc2[nH]c(-c3cccnc3)nc2c1` [Example 10, (S)—N-(2,3-dihydro-1H-inden-1-yl)-2-(pyridin-3-yl)-1H-benzo[d]imidazole-5-carboxamide]: the activation at 100 µM at PDE4B2 was -35%; on PDE4D5 it was 46%.

Consider `O=C(N[C@@H]1CCOc2ccc(Cl)cc21)c1ccc2[nH]c(-c3cccnc3)nc2c1` [Example 11, (R)—N-(6-chlorochroman-4-yl)-2-(pyridin-3-yl)-1H-benzo[d]imidazole-5-carboxamide], for which the activation at 100 µM on PDE4D5 turned out to be 35%.

On to `CN1CCC(c2nc3cc(C(=O)N[C@H]4CCCc5ccccc54)ccc3[nH]2)CC1` [Example 15, (S)-2-(1-methylpiperidin-4-yl)-N-(1,2,3,4-tetrahvdronaphthalen-1-yl)-1H-benzo[d]imidazole-5-carboxamide], for which the activation at 100 µM on PDE4B2 was determined as 3%; at PDE4D5 it was 123%.

On to `O=C(N[C@H]1CCOc2ccccc21)c1ccc2nc(-c3cccnc3)nn2c1` [Example 34, (S)—N-(chroman-4-yl)-2-(pyridin-3-yl)-[1,2,4]triazolo[1,5-a]pyridine-6-carboxamide], for which the figures for the activation at 100 µM at PDE4B2 and on PDE4D5 were 0% and 176%, respectively.

With `Cc1ccc(-c2nc3ccc(C(=O)N[C@H]4CCOc5ccccc54)cn3n2)cn1` [Example 35, (S)—N-(chroman-4-yl)-2-(6-methylpyridin-3-yl)-[1,2,4]triazolo[1,5-a]pyridine-6-carboxamide], the values for the activation at 100 µM at PDE4B2 and at PDE4D5 were -11% and 68%, respectively.

On to `Cc1cncc(-c2nc3ccc(C(=O)N[C@H]4CCOc5ccccc54)cn3n2)c1` [Example 36, (S)—N-(chroman-4-yl)-2-(5-methylpyridin-3-yl)-[1,2,4]triazolo[1,5-a]pyridine-6-carboxamide], for which the values for the activation at 100 µM on PDE4B2 and at PDE4D5 were 6% and 57%, respectively.

With `Cc1ccncc1-c1nc2ccc(C(=O)N[C@H]3CCOc4ccccc43)cn2n1` [Example 37, (S)—N-(chroman-4-yl)-2-(4-methylpyridin-3-yl)-[1,2,4]triazolo[1,5-a]pyridine-6-carboxamide], the activation at 100 µM on PDE4B2 was -24%; on PDE4D5, 127%.

Turning to `Cc1ccc(-c2nc3ccc(C(=O)N[C@H]4CCOc5ccccc54)cn3n2)c(C)n1` [Example 39, (S)—N-(chroman-4-yl)-2-(2,6-dimethylpyridin-3-yl)-[1,2,4]triazolo[1,5-a]pyridine-6-carboxamide], the activation at 100 µM at PDE4B2 was -28%; on PDE4D5, 63%.

On to `O=C(N[C@H]1CCOc2ccccc21)c1cnc2cc(-c3cccnc3)nn2c1` [Example 90, (S)—N-(chroman-4-yl)-2-(pyridin-3-yl)pyrazolo[1,5-a]pyrimidine-6-carboxamide], for which the activation at 100 µM on PDE4B2 was -8%; on PDE4D5, 99%.
